{
  "source": "patent US20230150951A1",
  "about": "“2,5- OR 2,6-DISUBSTITUTED HYDROQUINONE DERIVATIVES WITH AT LEAST ONE CARBOXY, SULFO OR AMIDO GROUP USEFUL AS MEDICAMENTS” (OM PHARMA SA, priority 2020, published 2023)",
  "key": {"[1]": {"test_system": "STZ-induced diabetes model", "experiment": "STZ-induced diabetic nephropathy, kidney disease and retinopathy model (28 days treatment)", "settings": "15 mg/kg IV, Captopril 50 mg/kg PO", "method": "A total of 70 female CD-1 mice aged 5-7 weeks weighing approximately 25-30 g were used for the study. These were purchased from Charles River, UK and had 7 days acclimatization period. Animals were housed in IVC cages (up to 5 per cage) with individual mice identified by tail mark. All animals were allowed free access to a standard certified commercial diet and sanitised water during the study. The holding room was maintained under standard conditions: 18-24° C., 55-70% humidity and a 12 h light/dark cycle.\nMice were starved for 6 hours prior to injection. One week after completion of induction glucose levels were monitored and mice with levels less than 15 mml/L (280 mg/gL) were removed from the study as they had not developed the ideal severity of diabetes. Glucose levels were be monitored weekly and 5 weeks after STZ induction biochemical assessment of renal injury was carried out by measuring urine albumin and creatinine levels and confirming they were within the desired range. After successful completion of this stage animals were assigned to treatment groups.\nTreatment continued for 4 weeks (28 days) with weekly measurement of blood glucose and urine albumin/creatinine. The study schedule is detailed below looking at weekly (week 5 to 9) blood glucose levels, urine albumin creatinie ratios, and terminal (week 9) blood chemistry and cytokines, kidney histology and eye-retinal leakage.\nUrine Albumin: Creatinine (ALB: CRE): Urine was collected weekly and pooled for each treatment group.\nELISAs: At the end of the treatment period blood was collected and processed to serum. Serum levels of CRP, TGF-β, IL-6 and TNF-α were quantified using commercially available ELISA kits, results are shown in Table 56."}, "[2]": {"test_system": "acute pancreatitis murine model", "experiment": "Caerulein-induced acute pancreatitis murine model", "assay_type": "in vivo, Balb/c mice", "parameters": "Serum IL33 level / Serum TGF-B level: unit not given here"}, "[3]": {"settings": "day 28 of treatment (week 9), serum"}, "[4]": {"settings": "1st experiment, caerulein induced, 15 mg/kg IV, Ib-010a and IVc-059a 150 mg/kg PO, Pirfenidone 40 mg/kg IV"}, "[5]": {"settings": "1st experiment, terminal pancreatic tissue, 15 mg/kg IV, Ib-010a and IVc-059a 150 mg/kg PO, Pirfenidone 40 mg/kg IV"}, "[6]": {"settings": "1st experiment, terminal serum, 15 mg/kg IV, Ib-010a and IVc-059a 150 mg/kg PO, Pirfenidone 40 mg/kg IV"}},
  "note": "Entries after “also recorded” stand apart in the source; their conditions may differ.",
  "data": [
    {"smiles": "O=C(O)c1cc(NC(=O)c2cc(O)c(C(=O)Nc3ccccc3-c3nnn[nH]3)cc2O)ccc1O", "note": "[Ic-001a-Tz/004a, 5-(4-(2-(1H-tetrazol-5-yl)phenylaminocarbonyl)-2,5-dihydroxybenzamido)-2-hydroxy benzoic acid]", "values": [
      {"measurement": "Mean day 0 blood glucose Concentration (mmol/L) (SD)", "setting": "[1]; day 0", "value": "25.8 (5.7) mmol/L"},
      {"measurement": "Mean day 28 blood glucose Concentration (mmol/L) (SD)", "setting": "[1]; day 28", "value": "29.6 (7.8) mmol/L"},
      {"measurement": "Blood BUN", "setting": "[1]; day 28 of treatment (week 9)", "value": "24.1 ± 4.1"},
      {"measurement": "Disease Score (kidney, H&E)", "setting": "[1]; day 28 of treatment (week 9)", "value": "9 ± 1"},
      {"measurement": "Eye area (retinal flatmount area covered by vasculature)", "setting": "[1]; day 28 of treatment (week 9)", "value": "10.7 ± 2.1"},
      {"measurement": "Trichrome staining (Kidney fibrosis)", "setting": "[1]; day 28 of treatment (week 9)", "value": "2.48 ± 0.46"},
      {"measurement": "Blood CRP", "setting": "[1]; [3]", "value": "6077 ± 863"},
      {"measurement": "Blood IL-6", "setting": "[1]; [3]", "value": "104.66 ± 22.89"},
      {"measurement": "Blood TGF-beta", "setting": "[1]; [3]", "value": "15.48 ± 1.73"},
      {"measurement": "Blood TNF-alpha", "setting": "[1]; [3]", "value": "322.8 ± 40.1"},
      {"measurement": "Urine albumine creatinine ratio (ALB:CRE)", "setting": "[1]; day 28 of treatment (week 9), urine pooled per group", "value": 35.10},
      {"measurement": "Acinar cell necrosis (group mean score)", "setting": "[2]; [4]", "value": 1.5},
      {"measurement": "Haemorrhage (group mean score)", "setting": "[2]; [4]", "value": 1.0},
      {"measurement": "Interstitial oedema (group mean score)", "setting": "[2]; [4]", "value": 1.6},
      {"measurement": "Leukocyte infiltration (group mean score)", "setting": "[2]; [4]", "value": 2.8},
      {"measurement": "Mean terminal BW (% of initial)", "setting": "[2]; [4]", "value": "93.5 % of initial"},
      {"measurement": "Mean terminal pancreas weight", "setting": "[2]; [4]", "value": 0.104, "unit": "g"},
      {"measurement": "Pancreas histopathology observations (H&E)", "setting": "[2]; [4]", "value": "Oedema observed throughout pancreas; also recorded: Mild haemorrhage observed; also recorded: Acinar cell necrosis observed; also recorded: Leukocyte infiltration throughout; also recorded: Disruption to the basophilic region"},
      {"measurement": "Schmidt Score (H&E)", "setting": "[2]; 1st experiment, caerulein induced, 15 mg/kg IV, Ib-010a and IVc-059a 150 mg/kg PO, Pirfenidone 40 mg/kg IV, induced + vehicle = 10, non-induced = 0", "value": 6.9},
      {"measurement": "Pancreas IL33 level", "setting": "[2]; [5]", "value": "180 ± 54"},
      {"measurement": "Pancreas MPO activity", "setting": "[2]; [5]", "value": 2.15},
      {"measurement": "Pancreas TGF-B level", "setting": "[2]; [5]", "value": "369 ± 195"},
      {"measurement": "Serum IL33 level", "setting": "[2]; [6]", "value": 35.43},
      {"measurement": "Serum TGF-B level", "setting": "[2]; [6]", "value": 8.99},
      {"measurement": "Serum amylase level", "setting": "[2]; [6]", "value": 36.51},
      {"measurement": "Serum lipase level", "setting": "[2]; [6]", "value": 8.21},
      {"measurement": "pancreatic tissue levels of IL33", "setting": "[2]; first experiment, IV, compared to the induced group", "value": "significant decrease"}
    ]}
  ]
}
